From ChEMBL document CHEMBL5108037, “Cyclic Peptide Screening Methods for Preclinical Drug Discovery” (J Med Chem, 2022)

Key:
[1] = target: T1, E3 ubiquitin-protein ligase Mdm2 (Homo sapiens, UniProt Q00987); assay: Inhibition of MDM2 (unknown origin) by Fluorescence polarization assay
[2] = target: T1, E3 ubiquitin-protein ligase Mdm2; assay: Binding affinity to MDM2 (unknown origin) by surface plasmon resonance analysis

T1 sequence (Q00987 whole entry): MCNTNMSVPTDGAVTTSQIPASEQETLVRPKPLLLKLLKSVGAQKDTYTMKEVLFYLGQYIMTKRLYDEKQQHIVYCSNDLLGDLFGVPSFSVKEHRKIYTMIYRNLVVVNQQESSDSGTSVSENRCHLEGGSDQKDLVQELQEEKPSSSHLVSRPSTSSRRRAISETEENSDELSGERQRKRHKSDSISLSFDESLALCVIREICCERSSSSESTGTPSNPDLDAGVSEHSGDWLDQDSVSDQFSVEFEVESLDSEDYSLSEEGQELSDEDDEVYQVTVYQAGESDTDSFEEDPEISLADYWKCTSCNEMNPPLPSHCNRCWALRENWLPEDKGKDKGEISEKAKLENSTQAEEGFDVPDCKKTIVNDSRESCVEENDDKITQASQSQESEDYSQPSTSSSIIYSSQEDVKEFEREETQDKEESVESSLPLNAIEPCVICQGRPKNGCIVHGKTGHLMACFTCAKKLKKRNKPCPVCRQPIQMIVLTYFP

CN1CCC(=O)NCCSCCS(=O)(=O)CCN(Cc2ccc(C#N)cc2)CC(=O)N[C@@H](Cc2cc3ccc(Cl)cc3[nH]2)C1=O
IC50 [1]: 0.6 µM
Kd [2]: 5.5 µM
